Patent US20240132525A1, “BORON […], CO[…], METHODS AND USES THEREOF” (priority 2022, published 2024)
Counter-ions that a name gives are not always drawn. Like-named read-outs stand apart in the source and are kept apart here.

Key:
JAK2 = JAK2 (Homo sapiens (Human), UniProt O60674); assay: Biochemical kinase assay (33P-ATP filter-binding), JAK2
Source text: (§1) Biochemical Kinase Assay Protocol (JAK)
(§2) Reaction Procedure: • 1. […] Detected kinase activity by filter-binding method.

JAK1 = JAK1 (Homo sapiens (Human), UniProt P23458); assay: Biochemical kinase assay (33P-ATP filter-binding), JAK1
Source text: as §1, §2

[1] = Dog LM (liver microsome) assay; format: in vitro ADME; settings: Table 3a; predicted clearance as percent of liver blood flow, 1 μM, 1 mg/ml microsomal protein
Experimental: Dog LM (Liver Microsome) Assay
The metabolic degradation of the test compound is assayed at 37° C. with pooled liver microsomes from dogs (Beagle). The final incubation volume of 100 μl per time point contains TRIS buffer pH 7.6 at RT (0.1 M), magnesium chloride (5 mM), microsomal protein (1 mg/ml) and the test compound at a final concentration of 1 μM. Following a short preincubation period at 37° C., the reactions were initiated by addition of beta-nicotinamide adenine dinucleotide phosphate, reduced form (NADPH, 1 mM) and terminated by transferring an aliquot into solvent after different time points. Additionally, the NADPH-independent degradation was monitored in incubations without NADPH, terminated at the last time point. The [%] remaining test compound after NADPH independent incubation is reflected by the parameter c (control) (metabolic stability). The quenched incubations are pelleted by centrifugation (10000 g, 5 min). An aliquot of the supernatant is assayed by LC-MS/MS for the amount of parent compound. The half-life (t½ INVITRO) is determined by the slope of the semilogarithmic plot of the concentration-time profile. The intrinsic clearance (CL_[…]) is calculated by considering the amount of protein in the incubation: CL_[…] [μl/min/mg protein]=(Ln 2/(half-life [min]*protein content [mg/ml]))*1000. For better across species comparison the predicted clearance is expressed as percent of the liver blood flow [% QH] in the individual species. In general, high stability (corresponding to low % QH) of the compounds across species is desired.

Sequence of JAK2 (O60674 whole entry, species assumed): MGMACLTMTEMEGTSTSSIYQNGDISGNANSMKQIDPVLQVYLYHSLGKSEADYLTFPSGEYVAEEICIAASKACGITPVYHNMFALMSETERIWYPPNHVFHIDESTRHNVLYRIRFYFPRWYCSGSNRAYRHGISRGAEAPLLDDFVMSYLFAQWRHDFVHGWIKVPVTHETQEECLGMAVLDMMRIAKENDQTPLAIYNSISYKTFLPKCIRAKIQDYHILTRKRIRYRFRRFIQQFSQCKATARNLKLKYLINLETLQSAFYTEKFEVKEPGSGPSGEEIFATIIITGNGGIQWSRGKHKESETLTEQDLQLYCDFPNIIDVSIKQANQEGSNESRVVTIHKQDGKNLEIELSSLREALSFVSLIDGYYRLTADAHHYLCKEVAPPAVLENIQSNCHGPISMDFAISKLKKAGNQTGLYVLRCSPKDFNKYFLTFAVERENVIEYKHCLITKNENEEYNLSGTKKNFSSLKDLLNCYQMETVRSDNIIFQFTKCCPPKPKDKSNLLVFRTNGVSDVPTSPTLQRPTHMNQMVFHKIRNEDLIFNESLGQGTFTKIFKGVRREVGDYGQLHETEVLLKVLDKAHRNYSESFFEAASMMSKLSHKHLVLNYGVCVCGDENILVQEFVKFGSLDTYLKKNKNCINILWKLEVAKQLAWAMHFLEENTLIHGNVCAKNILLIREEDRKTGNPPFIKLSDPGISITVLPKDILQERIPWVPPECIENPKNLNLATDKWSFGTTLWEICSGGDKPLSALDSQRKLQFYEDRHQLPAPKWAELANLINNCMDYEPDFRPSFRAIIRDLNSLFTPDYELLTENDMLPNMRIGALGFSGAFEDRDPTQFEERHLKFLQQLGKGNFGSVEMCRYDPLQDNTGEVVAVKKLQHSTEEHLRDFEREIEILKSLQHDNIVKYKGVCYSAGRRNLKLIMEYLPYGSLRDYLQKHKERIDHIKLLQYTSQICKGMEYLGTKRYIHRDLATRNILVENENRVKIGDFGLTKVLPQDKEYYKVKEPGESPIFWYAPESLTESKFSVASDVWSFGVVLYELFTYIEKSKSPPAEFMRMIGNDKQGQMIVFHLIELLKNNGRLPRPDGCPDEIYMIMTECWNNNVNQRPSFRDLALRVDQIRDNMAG
Sequence of JAK1 (P23458 whole entry, species assumed): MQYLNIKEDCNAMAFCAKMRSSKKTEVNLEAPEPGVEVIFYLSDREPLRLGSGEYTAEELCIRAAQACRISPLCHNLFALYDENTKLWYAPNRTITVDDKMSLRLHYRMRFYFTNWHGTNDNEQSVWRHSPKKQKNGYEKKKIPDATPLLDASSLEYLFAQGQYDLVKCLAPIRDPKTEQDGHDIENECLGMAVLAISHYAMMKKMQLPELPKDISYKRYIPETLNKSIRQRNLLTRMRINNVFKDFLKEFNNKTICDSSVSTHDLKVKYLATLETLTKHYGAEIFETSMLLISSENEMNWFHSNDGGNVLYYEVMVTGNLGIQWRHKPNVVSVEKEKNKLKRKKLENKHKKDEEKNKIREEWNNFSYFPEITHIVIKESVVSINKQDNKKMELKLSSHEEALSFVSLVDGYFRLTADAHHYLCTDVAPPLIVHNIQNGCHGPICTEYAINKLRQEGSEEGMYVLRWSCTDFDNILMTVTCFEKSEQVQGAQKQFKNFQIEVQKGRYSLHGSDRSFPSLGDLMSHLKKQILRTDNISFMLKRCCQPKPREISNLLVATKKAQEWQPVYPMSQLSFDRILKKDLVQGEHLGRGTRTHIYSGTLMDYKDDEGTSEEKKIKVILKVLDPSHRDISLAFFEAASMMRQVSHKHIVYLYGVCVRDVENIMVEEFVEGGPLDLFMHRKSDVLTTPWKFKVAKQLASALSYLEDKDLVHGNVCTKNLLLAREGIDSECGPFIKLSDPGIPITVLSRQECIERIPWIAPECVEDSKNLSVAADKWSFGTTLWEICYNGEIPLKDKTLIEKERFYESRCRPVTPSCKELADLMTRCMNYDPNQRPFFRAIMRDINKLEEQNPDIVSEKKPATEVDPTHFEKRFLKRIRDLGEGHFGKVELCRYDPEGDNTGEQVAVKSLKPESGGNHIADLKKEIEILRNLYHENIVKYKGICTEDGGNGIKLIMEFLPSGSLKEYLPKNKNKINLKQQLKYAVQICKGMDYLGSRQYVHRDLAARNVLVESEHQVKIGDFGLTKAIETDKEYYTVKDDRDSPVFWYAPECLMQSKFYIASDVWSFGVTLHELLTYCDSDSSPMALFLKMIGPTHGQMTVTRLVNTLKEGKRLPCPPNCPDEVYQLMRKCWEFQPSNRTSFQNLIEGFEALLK

Row | SMILES | IC50 (JAK2; Table 3a, read-out: IC50 JAK2) [nM] | IC50 (JAK1; Table 3a, read-out: IC50 JAK1) [nM] | Dog LM QH [1] [%] | IC50 (JAK2; IC50 JAK2, Table 3a) [nM] | IC50 (JAK1; IC50 JAK1, Table 3a) [nM]
1 | Cc1cnc(Nc2cc(C)c3c(c2)COB3O)nc1N[C@@H]1CCCC[C@H]1C#N (relative stereo) [Example 009, (trans)-2-((2-((1-hydroxy-7-methyl-1,3-dihydrobenzo[c][1,2]oxaborol-5-yl)amino)-5-methylpyrimidin-4-yl)amino)cyclohexane-1-carbonitrile] | 13.8 | 1.1 | <19.9 | – | –
2 | Cc1cnc(Nc2ccc3c(c2)C(C)(C)OB3O)nc1N[C@@H]1CCCC[C@H]1C#N (relative stereo) [Example 014, (trans)-2-[[2-[(1-hydroxy-3,3-dimethyl-2,1-benzoxaborol-5-yl)amino]-5-methylpyrimidin-4-yl]amino]cyclohexanecarbonitrile hydrochloride] | 6.3 | 1.4 | 48.7 | – | –
3 | CC1=Cc2cc(Nc3ncc(C)c(N[C@@H]4CCCC[C@H]4C#N)n3)ccc2OB1O (relative stereo) [Example 016, (trans)-2-((2-((2-hydroxy-3-methyl-2H-benzo[e][1,2]oxaborinin-6-yl)amino)-5-methylpyrimidin-4-yl)amino)cyclohexane-1-carbonitrile] | 17.5 | 2.5 | 70.2 | – | –
4 | Cc1cnc(Nc2cc(C#N)c3c(c2)COB3O)nc1N[C@@H]1CCC[C@H]1C#N (relative stereo) [Example 018, 5-((4-(((trans)-2-cyanocyclopentyl)amino)-5-methylpyrimidin-2-yl)amino)-1-hydroxy-1,3-dihydrobenzo[c][1,2]oxaborole-7-carbonitrile] | 10.4 | 0.5 | <19.9 | – | –
5 | Cc1cnc(Nc2cc3c(c(C4CC4)c2)B(O)OC3)nc1N[C@@H]1COCC[C@H]1C#N (relative stereo) [Example 025, (trans)-3-[[2-[(7-cyclopropyl-1-hydroxy-3H-2,1-benzoxaborol-5-yl)amino]-5-methyl-pyrimidin-4-yl]amino]tetrahydropyran-4-carbonitrile] | 24.2 | 0.4 | <19.9 | – | –
6 | Cc1cnc(Nc2ccc3c(c2)OB(O)C=C3)nc1N[C@@H]1COCC[C@H]1C#N (relative stereo) [Example 034, (trans)-3-[[2-[(2-hydroxy-1,2-benzoxaborinin-7-yl)amino]-5-methyl-pyrimidin-4-yl]amino]tetrahydropyran-4-carbonitrile] | 33.7 | 1.1 | 74.7 | – | –
7 | Cc1cnc(Nc2cc(Cl)c3c(c2)COB3O)nc1NC1CCCC[C@@H]1C#N (single isomer, unassigned) [Example 010b, (trans)-2-[[2-[(7-chloro-1-hydroxy-3H-2,1-benzoxaborol-5-yl)amino]-5-methyl-pyrimidin-4-yl]amino]cyclohexanecarbonitrile] | – | – | <19.9 | – | –
8 | Cc1cnc(Nc2cc3c(c(C(F)(F)F)c2)B(O)OC3)nc1N[C@H]1CCCC[C@@H]1C#N (single isomer, unassigned) [Example 011b, (trans)-2-((2-((1-hydroxy-7-(trifluoromethyl)-1,3-dihydrobenzo[c][1,2]oxaborol-5-yl)amino)-5-methylpyrimidin-4-yl)amino)cyclohexane-1-carbonitrile] | 197 | 10 | <19.9 | – | –
9 | Cc1cnc(Nc2cc(C#N)c3c(c2)COB3O)nc1N[C@H]1CCCC[C@@H]1C#N (single isomer, unassigned) [Example 012a, 5-((4-(((trans)-2-cyanocyclohexyl)amino)-5-methylpyrimidin-2-yl)amino)-1-hydroxy-1,3-dihydrobenzo[c][1,2]oxaborole-7-carbonitrile] | 2.4 | 0.6 | <19.9 | – | –
10 | Cc1cnc(Nc2cc(C#N)c3c(c2)COB3O)nc1N[C@H]1CCCC[C@@H]1C#N (single isomer, unassigned) [Example 012b, 5-((4-(((trans)-2-cyanocyclohexyl)amino)-5-methylpyrimidin-2-yl)amino)-1-hydroxy-1,3-dihydrobenzo[c][1,2]oxaborole-7-carbonitrile] | 126 | 8.2 | <19.9 | – | –
11 | Cc1cnc(Nc2ccc3c(c2)COB3O)nc1N[C@@H]1COCC[C@H]1C#N (single isomer, unassigned) [Example 026b, (trans)-3-((2-((1-hydroxy-1,3-dihydrobenzo[c][1,2]oxaborol-5-yl)amino)-5-methylpyrimidin-4-yl)amino)tetrahydro-2H-pyran-4-carbonitrile] | 95.3 | 47.1 | <19.9 | – | –
12 | Cc1cnc(Nc2cc(F)c3c(c2)COB3O)nc1N[C@@H]1COCC[C@H]1C#N (single isomer, unassigned) [Example 029b, (trans)-3-[[2-[(7-fluoro-1-hydroxy-3H-2,1-benzoxaborol-5-yl)amino]-5-methyl-pyrimidin-4-yl]amino]tetrahydropyran-4-carbonitrile] | 89.8 | 4 | <19.9 | – | –
13 | Cc1cnc(Nc2cc(Cl)c3c(c2)COB3O)nc1N[C@@H]1COCC[C@H]1C#N (single isomer, unassigned) [Example 031a, (trans)-3-((2-((7-chloro-1-hydroxy-1,3-dihydrobenzo[c][1,2]oxaborol-5-yl)amino)-5-methylpyrimidin-4-yl)amino)tetrahydro-2H-pyran-4-carbonitrile] | – | – | <19.9 | – | –
14 | Cc1cnc(Nc2cc3c(c(C(F)(F)F)c2)B(O)OC3)nc1N[C@@H]1COCC[C@H]1C#N (single isomer, unassigned) [Example 033b, (trans)-3-[[2-[[1-hydroxy-7-(trifluoromethyl)-3H-2,1-benzoxaborol-5-yl]amino]-5-methyl-pyrimidin-4-yl]amino]tetrahydropyran-4-carbonitrile] | 389 | 16.3 | 64.9 | – | –
15 | Cc1cnc(Nc2cc(F)c3c(c2)C=CB(O)O3)nc1N[C@@H]1COCC[C@H]1C#N (single isomer, unassigned) [Example 036b, (trans)-3-((2-((8-fluoro-2-hydroxy-2H-benzo[e][1,2]oxaborinin-6-yl)amino)-5-methylpyrimidin-4-yl)amino)tetrahydro-2H-pyran-4-carbonitrile] | 102 | 8.2 | 37.3 | – | –
16 | Cc1cnc(Nc2ccc3c(c2)C(C(C)C)=CB(O)O3)nc1N[C@H]1COCC[C@@H]1C#N (single isomer, unassigned) [Example 039b, (trans)-3-((2-((2-hydroxy-4-isopropyl-2H-benzo[e][1,2]oxaborinin-6-yl)amino)-5-methylpyrimidin-4-yl)amino)tetrahydro-2H-pyran-4-carbonitrile] | 2040 | 216 | 72.1 | – | –
17 | Cc1cnc(Nc2cc(Cl)c3c(c2)C(C(C)C)=CB(O)O3)nc1N[C@H]1COCC[C@@H]1C#N (single isomer, unassigned) [Example 040a, (trans)-3-((2-((8-chloro-2-hydroxy-4-isopropyl-2H-benzo[e][1,2]oxaborinin-6-yl)amino)-5-methylpyrimidin-4-yl)amino)tetrahydro-2H-pyran-4-carbonitrile] | > 1000 | > 1000 | 32.9 | – | –
18 | Cc1cc(Nc2ncc(Cl)c(N[C@H]3COCC[C@@H]3C#N)n2)cc2c1B(O)OC2 (single isomer, unassigned) [Example 041b, (trans)-3-[[5-chloro-2-[(1-hydroxy-7-methyl-3H-2,1-benzoxaborol-5-yl)amino]pyrimidin-4-yl]amino]tetrahydropyran-4-carbonitrile] | – | – | <19.9 | 134 | 36.2
19 | N#C[C@H]1CCOC[C@@H]1Nc1nc(Nc2cc3c(c(C(F)(F)F)c2)B(O)OC3)ncc1Cl (single isomer, unassigned) [Example 042b, (trans)-3-((5-chloro-2-((1-hydroxy-7-(trifluoromethyl)-1,3-dihydrobenzo[c][1,2]oxaborol-5-yl)amino)pyrimidin-4-yl)amino)tetrahydro-2H-pyran-4-carbonitrile] | 690 | 98.2 | <19.9 | – | –
20 | Cc1cnc(Nc2cc3c(c(C(F)(F)F)c2)B(O)OC3)nc1N[C@H]1COC[C@@H]1C#N (single isomer, unassigned) [Example 043b, (trans)-4-[[2-[[1-hydroxy-7-(trifluoromethyl)-3H-2,1-benzoxaborol-5-yl]amino]-5-methyl-pyrimidin-4-yl]amino]tetrahydrofuran-3-carbonitrile] | 298 | 7.6 | <19.9 | – | –
